US20230263792A1, “USE OF 2,3,5-SUBSTITUTED THIOPHENE COMPOUND FOR PREVENTING, ALLEVIATION, OR TREATING MASTOCYTOSIS” (PHAROS IBIO CO., LTD, priority 2020, published 2023)

How the values were obtained:
KIT (D816H) = biological target: T1, KIT (D816H) (Homo sapiens, UniProt P10721, D816H); experiment: Kinase binding assay (Kd, qPCR detection)
T1 construct: T7 phage fusion or DNA label for qPCR detection; made in house; host or cells: T7 phage in E. coli BL21-derived host, or HEK-293 cells (both named)
T1 sequence (P10721 26-976 D816H): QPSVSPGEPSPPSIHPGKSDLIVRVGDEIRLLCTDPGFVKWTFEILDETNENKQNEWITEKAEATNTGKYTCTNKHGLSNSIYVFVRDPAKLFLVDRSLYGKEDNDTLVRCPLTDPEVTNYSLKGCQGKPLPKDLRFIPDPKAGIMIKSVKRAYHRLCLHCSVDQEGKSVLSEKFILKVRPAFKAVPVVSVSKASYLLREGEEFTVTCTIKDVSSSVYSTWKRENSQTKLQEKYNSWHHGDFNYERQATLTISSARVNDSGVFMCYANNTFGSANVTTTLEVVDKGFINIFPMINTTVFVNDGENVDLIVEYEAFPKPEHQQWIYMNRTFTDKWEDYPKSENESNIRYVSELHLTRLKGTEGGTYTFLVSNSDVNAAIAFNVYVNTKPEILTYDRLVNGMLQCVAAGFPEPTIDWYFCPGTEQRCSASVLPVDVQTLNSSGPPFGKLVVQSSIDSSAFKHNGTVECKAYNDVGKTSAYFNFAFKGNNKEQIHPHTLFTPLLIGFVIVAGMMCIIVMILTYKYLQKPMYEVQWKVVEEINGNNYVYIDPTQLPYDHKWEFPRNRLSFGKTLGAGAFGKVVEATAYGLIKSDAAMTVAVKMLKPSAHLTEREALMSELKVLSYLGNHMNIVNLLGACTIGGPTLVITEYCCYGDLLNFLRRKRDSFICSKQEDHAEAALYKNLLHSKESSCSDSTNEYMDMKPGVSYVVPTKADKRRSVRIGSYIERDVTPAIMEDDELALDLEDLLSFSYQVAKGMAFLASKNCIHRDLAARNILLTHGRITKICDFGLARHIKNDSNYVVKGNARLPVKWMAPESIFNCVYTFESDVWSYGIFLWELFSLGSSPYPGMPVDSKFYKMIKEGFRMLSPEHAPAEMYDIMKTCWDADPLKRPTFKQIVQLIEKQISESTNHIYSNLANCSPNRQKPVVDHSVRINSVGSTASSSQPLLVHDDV
Experimental: (§1) A kinase-tagged T7 phage strain was prepared from an E. coli host derived from a BL21 strain. E. coli was grown in log-phase, infected with T7 phage, and then incubated with shaking at 32° C. until lysis. The lysates were centrifuged and filtered to remove cell debris. Thereafter, the kinase produced in HEK-293 cells was labeled with DNA for qPCR detection. Streptavidin-coated magnetic beads were treated with biotinylated small molecule ligand for 30 minutes at room temperature to produce affinity resins for kinase assay. The liganded beads were blocked with excess biotin and washed with blocking buffer (SeaBlock(Pierce), 1% BSA, 0.05% Tween 20, 1 mM DTT) to remove unbound ligand and to reduce nonspecific binding. Binding reactions were induced by combining kinase, ligand affinity beads and PHI-101 in 1× binding buffer (20% SeaBlock, 0.17× PBS, 0.05% Tween 20, 6 mM DTT). PHI-101 was prepared as a 111X stock in 100% DMSO. The binding constant (Kd) was determined using an 11-point 3-fold compound dilution series with three DMSO control points. All compounds for Kd measurements were dispensed by acoustic transfer (non-contact dispensing) in 100% DMSO. The compounds were then diluted directly into the assays such that the final concentration of DMSO was 0.9%. All reactions were performed in polypropylene 384-well plates at a final volume of 0.02 ml. The assay plates were incubated at room temperature with shaking for 1 hour and the affinity beads were washed with wash buffer (1× PBS, 0.05% Tween 20). The beads were then re-suspended in elution buffer (1× PBS, 0.05% Tween 20, 0.5 μM non-biotinylated affinity ligand) and incubated at room temperature with shaking for 30 minutes. The kinase concentration in the eluates was measured by qPCR.
(§2) 11-point 3-fold serial dilutions of each test compound were prepared in 100% DMSO at 100×final test concentration and then diluted to 1× in the assay (final DMSO concentration=1%). Most Kd values were determined using a compound top concentration=30,000 nM. If the initial Kd determined was <0.5 nM (lowest concentration tested), the measurement was repeated with a serial dilution starting at a lower top concentration.
(§3) The Kd value of c-kit protein was calculated with a standard dose-response curve (Equation 1) using the Hill equation.
(§4) The Hill Slope was set to −1. Curves were fitted using a non-linear least square fit with the Levenberg-Marquardt algorithm.

KIT (D816V) = biological target: T2, KIT (D816V) (Homo sapiens, UniProt P10721, D816V); experiment: Kinase binding assay (Kd, qPCR detection)
T2 construct: T7 phage fusion or DNA label for qPCR detection; made in house; host or cells: T7 phage in E. coli BL21-derived host, or HEK-293 cells (both named)
T2 sequence (P10721 26-976 D816V): as the sequence (P10721 26-976 D816H) above, with H791V counted along it
Experimental: as §1, §2, §3, §4

KIT (V559D, T670I) = biological target: T3, KIT (V559D, T670I) (Homo sapiens, UniProt P10721, T670I/V559D); experiment: Kinase binding assay (Kd, qPCR detection)
T3 construct: T7 phage fusion or DNA label for qPCR detection; made in house; host or cells: T7 phage in E. coli BL21-derived host, or HEK-293 cells (both named)
T3 sequence (P10721 26-976 V559D/T670I): as the sequence (P10721 26-976 D816H) above, with V534D, T645I, H791D counted along it
Experimental: as §1, §2, §3, §4

KIT (V559D) = biological target: T4, KIT (V559D) (Homo sapiens, UniProt P10721, V559D); experiment: Kinase binding assay (Kd, qPCR detection)
T4 construct: T7 phage fusion or DNA label for qPCR detection; made in house; host or cells: T7 phage in E. coli BL21-derived host, or HEK-293 cells (both named)
T4 sequence (P10721 26-976 V559D): as the sequence (P10721 26-976 D816H) above, with V534D, H791D counted along it
Experimental: as §1, §2, §3, §4

KIT (L576P) = biological target: T5, KIT (L576P) (Homo sapiens, UniProt P10721, L576P); experiment: Kinase binding assay (Kd, qPCR detection)
T5 construct: T7 phage fusion or DNA label for qPCR detection; made in house; host or cells: T7 phage in E. coli BL21-derived host, or HEK-293 cells (both named)
T5 sequence (P10721 26-976 L576P): as the sequence (P10721 26-976 D816H) above, with L551P, H791D counted along it
Experimental: as §1, §2, §3, §4

KIT (A829P) = biological target: T6, KIT (A829P) (Homo sapiens, UniProt P10721, A829P); experiment: Kinase binding assay (Kd, qPCR detection)
T6 construct: T7 phage fusion or DNA label for qPCR detection; made in house; host or cells: T7 phage in E. coli BL21-derived host, or HEK-293 cells (both named)
T6 sequence (P10721 26-976 A829P): as the sequence (P10721 26-976 D816H) above, with H791D, A804P counted along it
Experimental: as §1, §2, §3, §4

KIT (V559D, V654A) = biological target: T7, KIT (V559D, V654A) (Homo sapiens, UniProt P10721, V559D/V654A); experiment: Kinase binding assay (Kd, qPCR detection)
T7 construct: T7 phage fusion or DNA label for qPCR detection; made in house; host or cells: T7 phage in E. coli BL21-derived host, or HEK-293 cells (both named)
T7 sequence (P10721 26-976 V559D/V654A): as the sequence (P10721 26-976 D816H) above, with V534D, V629A, H791D counted along it
Experimental: as §1, §2, §3, §4

[1] = system: c-kit phosphorylation and downstream signaling (p-STAT3, p-ERK1/2) in the c-kit D816V mutant Ba/F3 cell line; experiment: Western blot of c-kit phosphorylation and downstream signaling in c-kit D816V Ba/F3; assay type: cell-based; settings: 0.1, 1 and 10 μM, 2 hours, FIG. 2
Experimental: The inhibitory activities of control compounds and PHI-101 against c-kit phosphorylation and downstream signaling (p-STAT3, p-ERK1/2) in the c-kit D816V mutant Ba/F3 cell line were measured, and as the control compounds, sunitinib and dasatinib were used.
Specifically, the c-kit D816V mutant Ba/F3 cell line was dispensed at a concentration of 1×10^6 cells/ml, treated with each of the control compounds and PHI-101 at concentrations of 0.1, 1 and 10 μM, and then cultured for 2 hours. Next, lysates of the cells were obtained using lysis buffer (50 mM Tris-HCl pH 7.5, 1% NP40, 1 mM EDTA, 150 mM NaCl, 5 mM, Na3VO4 and 2.5 mM NaF, and a protease inhibitor cocktail). Equal amounts of the cell lysates were electrophoresed using 8% SDS-PAGE gel at 100 V for 1 hour and 30 minutes, and the separated protein was electrically transferred to nitrocellulose membranes. The membranes were blocked with 5% skim milk at room temperature for 30 minutes, and allowed to react with primary antibodies (diluted 1:5,000), including p-c-kit tyrosine 719 (Y719), p-STAT3 tyrosine 705 (Y705) and p-ERK1/2 threonine 202/tyrosine 204 (T202/Y204) at 4° C. for 16 to 20 hours. […] Next, the membranes were washed three times with TBST for 5 minutes each time and treated with a chemiluminescent substrate reagent, and the expression level of the protein was measured by detecting luminescence with an X-ray film in the dark.

[2] = system: Ba/F3 cell line with a c-kit D816V mutation; experiment: Growth inhibition of c-kit D816V Ba/F3 cell line (Celltiter glo); assay type: cell-based; settings: GI50 comparison, Table 1
Experimental: Specifically, 100 μl of a Ba/F3 cell line with a c-kit D816V mutation (FIG. 1) was added to each well of a 96-well plate at a concentration of 10,000 cells/100 μl. After 4 hours, 100 μl of the Ba/F3 cell line was treated with 0.5 μl of each of control compounds and PHI-101 (10-point 1:3 serial dilutions) to a final concentration of up to 50 μM, and cultured at 37° C. under 5% CO2 for 72 hours. As the control compounds, imatinib and sunitinib which are c-kit inhibitors were used. After culture, the cells were counted using a Celltiter glo assay kit (Promega), and the 50% growth inhibition values (GI50, μM) of the control compounds and PHI-101 were measured.

## NC(=O)Nc1cc(C#Cc2cccc(F)c2)sc1C(=O)N[C@H]1CCCNC1 [PHI-101]
KIT (D816H)
  Kd: 4.8 nM
KIT (D816V)
  Kd: 2.1 nM
KIT (V559D, T670I)
  Kd: 27 nM
KIT (V559D)
  Kd: 16 nM
KIT (L576P)
  Kd: 39 nM
KIT (A829P)
  Kd: 1.3 nM
KIT (V559D, V654A)
  Kd: 26 nM
[1]
  inhibitory activity against p-c-kit (Y719) phosphorylation: higher inhibitory activity against p-c-kit (Y719) phosphorylation than the control compounds
[2]
  selectivity for c-kit D816V Ba/F3 over parental Ba/F3: higher selectivity for the c-kit D816V Ba/F3 mutant cell line than for the parental Ba/F3 cell line
